ChEMBL document CHEMBL1201862, “PubChem BioAssay data set” (2004)
Active and inactive are the calls of the source.

Experiments:
[1] = Counterscreen for activators of the function of SWI/SNF related, matrix associated, actin dependent regulator of chromatin, subfamily a, member 2 (SMARCA2, BRM): Luminescence-based cell-based high throughput dose response assay to identify non-selective compounds using the VP16 reporter assay.; type: functional
[2] = target: SWI/SNF-related matrix-associated actin-dependent regulator of chromatin subfamily A member 2 (Homo sapiens, UniProt P51531); assay: Luminescence-based cell-based high throughput dose response assay to identify activators of the function of SWI/SNF related, matrix associated, actin dependent regulator of chromatin, subfamily a, member 2 (SMARCA2, BRM).; type: functional
Chain of SWI/SNF-related matrix-associated actin-dependent regulator of chromatin subfamily A member 2 (P51531 whole entry): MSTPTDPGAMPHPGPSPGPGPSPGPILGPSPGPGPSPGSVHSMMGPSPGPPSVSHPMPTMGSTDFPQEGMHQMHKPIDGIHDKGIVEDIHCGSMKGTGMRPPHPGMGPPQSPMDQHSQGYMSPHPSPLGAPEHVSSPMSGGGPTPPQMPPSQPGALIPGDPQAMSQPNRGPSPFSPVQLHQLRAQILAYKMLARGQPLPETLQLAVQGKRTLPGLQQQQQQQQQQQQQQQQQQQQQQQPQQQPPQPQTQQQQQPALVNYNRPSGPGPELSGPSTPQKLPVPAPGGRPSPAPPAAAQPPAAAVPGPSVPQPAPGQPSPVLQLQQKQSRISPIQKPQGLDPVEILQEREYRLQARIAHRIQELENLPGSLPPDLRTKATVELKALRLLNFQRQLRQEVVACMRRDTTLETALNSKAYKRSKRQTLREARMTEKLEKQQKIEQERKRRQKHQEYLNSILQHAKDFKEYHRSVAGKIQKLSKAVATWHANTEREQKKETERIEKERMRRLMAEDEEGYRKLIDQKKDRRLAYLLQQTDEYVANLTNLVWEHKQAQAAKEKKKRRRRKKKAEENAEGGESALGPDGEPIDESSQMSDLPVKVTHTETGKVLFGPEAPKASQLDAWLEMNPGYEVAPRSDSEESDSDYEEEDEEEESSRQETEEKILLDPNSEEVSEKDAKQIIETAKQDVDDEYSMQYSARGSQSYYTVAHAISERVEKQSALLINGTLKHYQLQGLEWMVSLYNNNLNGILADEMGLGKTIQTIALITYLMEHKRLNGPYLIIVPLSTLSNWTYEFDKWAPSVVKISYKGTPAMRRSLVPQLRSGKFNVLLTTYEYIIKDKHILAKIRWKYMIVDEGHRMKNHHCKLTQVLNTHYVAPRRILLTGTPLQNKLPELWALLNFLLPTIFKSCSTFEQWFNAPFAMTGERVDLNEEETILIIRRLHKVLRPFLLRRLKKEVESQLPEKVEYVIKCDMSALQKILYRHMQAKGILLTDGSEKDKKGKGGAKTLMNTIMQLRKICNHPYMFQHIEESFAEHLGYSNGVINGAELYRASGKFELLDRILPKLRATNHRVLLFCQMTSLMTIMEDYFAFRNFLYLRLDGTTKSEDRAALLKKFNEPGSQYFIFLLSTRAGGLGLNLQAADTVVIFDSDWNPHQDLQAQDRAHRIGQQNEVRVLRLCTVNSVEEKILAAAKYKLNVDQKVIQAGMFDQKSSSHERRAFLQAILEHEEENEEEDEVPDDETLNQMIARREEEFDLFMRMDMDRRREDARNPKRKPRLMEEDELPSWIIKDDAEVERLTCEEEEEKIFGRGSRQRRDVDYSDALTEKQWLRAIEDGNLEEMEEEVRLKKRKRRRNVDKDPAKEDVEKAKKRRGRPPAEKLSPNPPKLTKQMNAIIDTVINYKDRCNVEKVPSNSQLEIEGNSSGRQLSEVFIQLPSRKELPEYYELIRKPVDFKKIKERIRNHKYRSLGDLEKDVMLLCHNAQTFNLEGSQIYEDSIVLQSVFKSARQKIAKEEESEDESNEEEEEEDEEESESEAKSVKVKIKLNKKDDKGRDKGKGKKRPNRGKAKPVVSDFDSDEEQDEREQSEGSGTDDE

[3] = target: Luciferin 4-monooxygenase (Photinus pyralis, UniProt P08659); assay: firefly luciferase enzyme inhibitors, dose response, biochemical, luminescence (AID 1891)
Chain of Luciferin 4-monooxygenase (P08659 whole entry): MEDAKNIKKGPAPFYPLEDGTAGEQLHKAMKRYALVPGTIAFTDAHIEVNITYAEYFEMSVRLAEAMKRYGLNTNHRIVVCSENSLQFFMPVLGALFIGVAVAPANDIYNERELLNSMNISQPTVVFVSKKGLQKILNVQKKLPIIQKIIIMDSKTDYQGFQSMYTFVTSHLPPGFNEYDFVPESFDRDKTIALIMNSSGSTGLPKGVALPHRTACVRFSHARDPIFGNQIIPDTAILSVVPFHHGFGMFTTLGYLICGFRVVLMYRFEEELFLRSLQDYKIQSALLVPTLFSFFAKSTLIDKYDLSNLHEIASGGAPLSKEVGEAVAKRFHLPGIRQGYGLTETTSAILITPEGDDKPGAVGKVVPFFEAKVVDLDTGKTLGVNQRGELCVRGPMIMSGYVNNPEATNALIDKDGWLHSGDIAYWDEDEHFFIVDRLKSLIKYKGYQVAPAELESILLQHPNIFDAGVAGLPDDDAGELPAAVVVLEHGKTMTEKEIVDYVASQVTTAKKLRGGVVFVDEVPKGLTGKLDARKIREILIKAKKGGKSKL

[4] = Luminescence Cell-Based Dose Confirmation HTS to Identify Inhibitors of Platelet Dense Granule Release. [Related pubchem assays: 1663 (Primary HTS), 1678 (Summary of Project)]; type: functional
[5] = target: T1, Replicative DNA helicase DnaB (Mycobacterium tuberculosis, UniProt P9WMR3); assay: DnaB intein splicing inhibitors, dose response, biochemical, cell-free fluorescence (AID 449749); type: functional
T1 sequence (P9WMR3 whole entry): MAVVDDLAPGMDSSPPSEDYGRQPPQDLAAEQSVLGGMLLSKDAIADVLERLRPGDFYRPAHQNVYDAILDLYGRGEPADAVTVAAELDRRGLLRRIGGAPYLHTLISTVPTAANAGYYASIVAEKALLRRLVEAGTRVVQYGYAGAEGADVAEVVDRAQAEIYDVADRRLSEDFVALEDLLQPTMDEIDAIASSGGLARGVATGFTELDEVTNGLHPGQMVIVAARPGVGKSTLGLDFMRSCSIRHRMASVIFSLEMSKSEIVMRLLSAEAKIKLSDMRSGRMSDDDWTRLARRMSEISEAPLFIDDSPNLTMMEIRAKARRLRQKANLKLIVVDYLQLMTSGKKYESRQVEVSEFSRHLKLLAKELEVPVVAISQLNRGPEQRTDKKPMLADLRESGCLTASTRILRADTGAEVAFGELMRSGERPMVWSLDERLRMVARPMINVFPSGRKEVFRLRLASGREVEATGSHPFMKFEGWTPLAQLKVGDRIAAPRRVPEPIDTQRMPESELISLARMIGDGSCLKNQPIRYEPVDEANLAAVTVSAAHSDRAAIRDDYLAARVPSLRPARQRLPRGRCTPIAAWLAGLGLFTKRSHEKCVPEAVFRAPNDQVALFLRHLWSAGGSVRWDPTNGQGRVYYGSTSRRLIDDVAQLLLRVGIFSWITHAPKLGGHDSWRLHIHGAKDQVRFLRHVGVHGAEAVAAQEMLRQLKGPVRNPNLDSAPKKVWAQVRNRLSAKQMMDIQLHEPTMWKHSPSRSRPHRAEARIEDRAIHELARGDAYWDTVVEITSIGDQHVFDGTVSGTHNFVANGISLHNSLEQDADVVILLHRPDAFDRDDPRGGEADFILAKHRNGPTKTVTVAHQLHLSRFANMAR

Protein RecA = target: T2, Protein RecA (Mycobacterium tuberculosis, UniProt P9WHJ3); assay: Fluorescence Cell-Free Homogeneous Dose Retest to Identify Inhibitors of RecA-Intein Splicing Activity. [Related pubchem assays (depositor defined):AID2097, AID2223, AID489010, AID492950]; type: functional
T2 sequence (P9WHJ3 whole entry): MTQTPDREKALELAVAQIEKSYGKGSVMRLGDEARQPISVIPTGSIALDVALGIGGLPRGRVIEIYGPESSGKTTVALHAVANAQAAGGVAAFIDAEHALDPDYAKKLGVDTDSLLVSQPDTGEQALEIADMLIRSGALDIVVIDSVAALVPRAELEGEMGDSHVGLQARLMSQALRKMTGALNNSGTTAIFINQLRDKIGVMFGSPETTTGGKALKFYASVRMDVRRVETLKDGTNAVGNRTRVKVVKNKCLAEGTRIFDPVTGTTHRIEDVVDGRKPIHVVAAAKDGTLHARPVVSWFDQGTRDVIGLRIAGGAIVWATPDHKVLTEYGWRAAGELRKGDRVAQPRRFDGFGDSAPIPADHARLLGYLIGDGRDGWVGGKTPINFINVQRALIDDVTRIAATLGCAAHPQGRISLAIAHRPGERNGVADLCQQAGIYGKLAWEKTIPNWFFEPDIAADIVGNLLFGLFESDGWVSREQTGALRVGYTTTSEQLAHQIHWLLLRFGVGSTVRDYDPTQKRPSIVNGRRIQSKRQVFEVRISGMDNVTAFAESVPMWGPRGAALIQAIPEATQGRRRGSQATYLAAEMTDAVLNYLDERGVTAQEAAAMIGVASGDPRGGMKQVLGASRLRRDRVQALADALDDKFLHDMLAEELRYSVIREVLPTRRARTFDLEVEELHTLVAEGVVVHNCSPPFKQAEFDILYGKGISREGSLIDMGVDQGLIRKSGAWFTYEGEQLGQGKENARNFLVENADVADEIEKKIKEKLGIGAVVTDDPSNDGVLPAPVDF

[6] = target: T3, Lysine-specific demethylase 4C (Homo sapiens, UniProt Q9H3R0); assay: GASC-1 (JMJD2C) histone demethylase inhibitors, dose response, biochemical, DELFIA europium, cherry-picked samples (AID 488835); type: functional
T3 sequence (Q9H3R0 whole entry): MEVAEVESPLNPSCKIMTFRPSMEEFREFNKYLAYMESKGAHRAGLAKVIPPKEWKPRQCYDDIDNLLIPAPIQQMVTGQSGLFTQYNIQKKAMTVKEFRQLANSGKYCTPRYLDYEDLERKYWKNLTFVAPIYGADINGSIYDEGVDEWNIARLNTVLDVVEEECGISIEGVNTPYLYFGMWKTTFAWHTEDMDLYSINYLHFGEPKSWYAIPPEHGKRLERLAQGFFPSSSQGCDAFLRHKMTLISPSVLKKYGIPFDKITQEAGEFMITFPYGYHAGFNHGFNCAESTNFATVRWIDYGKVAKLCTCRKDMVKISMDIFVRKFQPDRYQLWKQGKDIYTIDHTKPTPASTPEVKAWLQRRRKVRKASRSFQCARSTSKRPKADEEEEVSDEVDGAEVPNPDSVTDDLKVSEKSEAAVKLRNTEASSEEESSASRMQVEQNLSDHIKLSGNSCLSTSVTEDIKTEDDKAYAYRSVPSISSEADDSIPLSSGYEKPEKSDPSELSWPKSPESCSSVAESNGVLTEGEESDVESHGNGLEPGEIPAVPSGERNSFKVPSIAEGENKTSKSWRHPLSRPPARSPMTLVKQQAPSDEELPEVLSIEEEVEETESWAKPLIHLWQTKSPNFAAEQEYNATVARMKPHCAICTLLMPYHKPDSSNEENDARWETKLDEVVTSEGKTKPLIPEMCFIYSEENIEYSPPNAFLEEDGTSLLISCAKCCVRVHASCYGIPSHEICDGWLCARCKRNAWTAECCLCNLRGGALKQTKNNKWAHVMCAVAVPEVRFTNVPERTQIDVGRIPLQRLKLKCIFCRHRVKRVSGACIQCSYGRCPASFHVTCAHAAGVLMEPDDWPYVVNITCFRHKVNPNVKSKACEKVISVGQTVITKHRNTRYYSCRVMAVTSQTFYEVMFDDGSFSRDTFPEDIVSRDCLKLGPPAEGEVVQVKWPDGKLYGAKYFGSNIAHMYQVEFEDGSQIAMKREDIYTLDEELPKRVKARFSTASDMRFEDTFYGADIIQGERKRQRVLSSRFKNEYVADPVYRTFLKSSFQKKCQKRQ

[7] = target: T4, Heat shock factor protein 1 (Mus musculus, UniProt P38532); assay: HSF1 potentiators in luciferase reporter cells, confirmation, cell-based, NIH3T3, luminescence, dose retest (AID 435004); type: functional;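 note: stress induced by proteasome inhibitor MG132 added 30 min after compound; luciferase reporter driven by HSF1 response element in NIH3T3 cells; actives raise luminescence as potentiators of the MG132 stress response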
T4 sequence (P38532 whole entry): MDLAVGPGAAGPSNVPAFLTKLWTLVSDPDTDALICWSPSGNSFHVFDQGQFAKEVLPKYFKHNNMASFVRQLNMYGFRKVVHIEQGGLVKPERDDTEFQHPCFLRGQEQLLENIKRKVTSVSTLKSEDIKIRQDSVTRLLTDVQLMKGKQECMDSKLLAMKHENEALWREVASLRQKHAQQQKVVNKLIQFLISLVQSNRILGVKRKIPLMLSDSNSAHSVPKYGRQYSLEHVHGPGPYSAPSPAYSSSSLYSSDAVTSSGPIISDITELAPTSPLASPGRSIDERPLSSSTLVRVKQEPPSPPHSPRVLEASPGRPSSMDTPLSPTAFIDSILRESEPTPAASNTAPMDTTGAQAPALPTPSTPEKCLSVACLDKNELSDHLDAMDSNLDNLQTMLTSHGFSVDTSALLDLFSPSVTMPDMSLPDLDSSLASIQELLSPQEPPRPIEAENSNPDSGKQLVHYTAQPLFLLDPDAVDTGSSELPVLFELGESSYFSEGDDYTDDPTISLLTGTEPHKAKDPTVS

HEK293 [8] = assay: cells; type: functional, cell-based; settings: Homo sapiens
HEK293 [9] = assay: cells; type: functional, cell-based; settings: Homo sapiens; remark: listed apart in the source
HEK293 [10] = assay: NOD1 signaling inhibitors, primary screen, cell-based, luminescence, uHTS (AID 1578); type: functional; settings: Homo sapiens
HEK293 [11] = assay: NOD2 signaling inhibitors in MDP-stimulated cells, cell-based, uHTS, luminescence (AID 2001); type: functional; settings: Homo sapiens
Streptokinase A = target: T5, Streptokinase A (Streptococcus pyogenes serotype M1, UniProt P10520); assay: S. pyogenes streptokinase expression inhibitors, potency, dose response, plasminogen activation absorbance, OD405 (AID 1914); type: functional, Streptococcus pyogenes M1 GAS;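 note: secreted streptokinase activity via plasminogen activation per viability signal from cell pellet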
T5 sequence (P10520 whole entry): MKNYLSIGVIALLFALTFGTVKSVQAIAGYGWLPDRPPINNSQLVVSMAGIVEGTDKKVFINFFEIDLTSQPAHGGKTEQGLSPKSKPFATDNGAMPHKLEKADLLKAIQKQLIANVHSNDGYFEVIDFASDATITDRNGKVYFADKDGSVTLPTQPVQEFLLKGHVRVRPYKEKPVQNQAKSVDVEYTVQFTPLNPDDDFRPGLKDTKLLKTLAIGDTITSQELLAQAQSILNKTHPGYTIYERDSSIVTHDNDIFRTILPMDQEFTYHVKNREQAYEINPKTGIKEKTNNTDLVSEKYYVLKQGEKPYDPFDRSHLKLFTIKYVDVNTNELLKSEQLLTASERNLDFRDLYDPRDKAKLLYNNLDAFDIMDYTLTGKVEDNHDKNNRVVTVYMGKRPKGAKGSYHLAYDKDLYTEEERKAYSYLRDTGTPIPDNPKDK

[12] = test system: Streptococcus sp. 'group A'; assay: growth inhibition of control SK(-) GAS strain, dose response, counter-screen for streptokinase expression inhibitor project, luminescence, kanamycin, BacTiterGlo, confirmation (AID 1900); type: functional, organism-based
Streptococcus = assay: Group A Streptococcus viability loss, dose response, counter-screen for streptokinase expression inhibitor project, luminescence, BacTiterGlo (AID 1915); type: functional, organism-based;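 note: potency for reduction of bacterial viability or growth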
HEK293 [13] = assay: inhibitors of LMP1-driven NF-kB reporter, dose response, cell-based, HEK293, luciferase, cherry-pick (AID 588343); type: functional; settings: Homo sapiens
[14] = target: Heat shock protein HSP 90-alpha (Homo sapiens, UniProt P07900); type: functional, organism-based
[15] = inhibitors of firefly luciferase expression or activity, dose response, H4 neuroglioma cells, luminescence (AID 1990); type: functional, cell-based
[16] = inhibitors of SNCA 5'UTR-driven reporter translation, confirmation, H4 neuroglioma cells, luminescence (AID 1988); type: functional, cell-based
Nonstructural protein 1 = Nonstructural protein 1 (Influenza A virus, UniProt Q194T2); type: functional, Influenza A virus (A/California/07/2009(H1N1))
Chain of Nonstructural protein 1 (Q194T2 whole entry): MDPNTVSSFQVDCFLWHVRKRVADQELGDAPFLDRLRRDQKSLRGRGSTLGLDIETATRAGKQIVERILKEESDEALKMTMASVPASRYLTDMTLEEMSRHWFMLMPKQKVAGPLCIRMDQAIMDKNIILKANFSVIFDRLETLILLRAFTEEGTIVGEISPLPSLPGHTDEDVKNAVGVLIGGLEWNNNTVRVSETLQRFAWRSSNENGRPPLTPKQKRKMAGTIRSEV

[17] = Luminescence Cell-Based Dose Response HTS to Identify Inhibitors of 5'UTR Stem-Loop Driven Prion Protein mRNA Translation in H4 Neuroglioblastoma Cells. [Related pubchem assays: 1827 (Project Summary), 1813 (Primary HTS)]; type: functional

COc1cccc(C(=O)COC(=O)c2cccs2)c1
EC50 [1]: > 91.1 µM (inactive) | EC50 [2]: > 91.1 µM (inactive)

Cc1nnc2c(N(C)S(=O)(=O)c3ccccc3)nc3ccccc3n12
EC50 [3]: > 112 µM (not active) | EC50 [1]: > 91.2 µM (inactive) | EC50 [2]: > 91.2 µM (inactive) | EC50 [4]: > 112 µM (not active)

Cc1cc(C)n2nc(CNS(=O)(=O)c3c(F)c(F)c(F)c(F)c3F)nc2n1
EC50 [1]: > 91.2 µM (inactive) | AC50 [5]: 38.5 µM (active) | EC50 (Protein RecA): 10.8 µM (active) | EC50 [2]: > 91.2 µM (inactive)

COc1ccccc1/C=C1/SC(=S)N(C(C)C(=O)NC2C=CS(=O)(=O)C2)C1=O (centres undefined)
AC50 [6]: > 60 µM (inactive) | EC50 [7]: 57.9 µM (active)

O=C(NC(NC(=S)Nc1ccccc1Cl)C(Cl)(Cl)Cl)c1cccc(Cl)c1 (centres undefined)
IC50 (HEK293 [8]): 11.5 µM (active) | IC50 (HEK293 [9]): 3.72 µM (active) | EC50 (HEK293 [10]): > 20 µM (inactive) | IC50 (HEK293 [11]): 3.78 µM (active) | EC50 (Streptokinase A): 5.81 µM (active) | EC50 [12]: 2.05 µM (active) | EC50 (Streptococcus): 3.79 µM (active)

CCc1sc(C(=O)Nc2nc(-c3ccccn3)cs2)cc1C
AC50 (HEK293 [13]): 1.33 µM (active) | AC50 [14]: 7.91 µM (active)

CCOC(=O)c1sc(NC(=O)CNCc2ccccn2)c(C(=O)OCC)c1C
EC50 [15]: 11.7 µM (active) | EC50 [16]: 8.92 µM (active) | AC50 (HEK293 [13]): 2.35 µM (active) | IC50 (Nonstructural protein 1): 8.76 µM (active) | EC50 [12]: 0.195 µM (active) | EC50 (Streptococcus): 5.05 µM (active) | EC50 [17]: 9.71 µM (active)

CC(C)c1c(CN(C)C(C)Cc2ccccc2)n(C)n(-c2ccccc2)c1=O (centres undefined) [FAMPROFAZONE]
AC50 (HEK293 [13]): 292 µM (active)
